Common to all, as to type: in vivo
Data set [1] deals with American cockroaches (Periplaneta americana). Description: Test Example 14: American cockroach, topical application, comparison with compound 112. The conditions noted are these: 1.0 μL topical, 7 days after treatment. The protocol: The compound 112 (hereinafter, referred to as “compound 112”), described in Table 40 of WO 2013/018928 pamphlet, and the present compound 1 were dissolved in acetone and then the acetone solutions of the designated concentration were prepared.
A droplet (1.0 μL) of the solution was topically applied onto the ventral prothorax of each female American cockroaches (Periplaneta americana). Then, the treated individuals were transferred to a clean polyethylene cup (bottom diameter: 12 cm, height: 10 cm) with some food and water. Each treatment consisted of 2 replications of 5 roaches/polyethylene cup. The mortality was determined on 7 days after treatment at 25° C. Mortality of insects (%)=(Number of dead insects/Number of tested insects)×100

For data set [2] the test system is unchanged. Description: Test Example 13: American cockroach, topical application of 10% w/v acetone solution. The conditions noted are these: 1.0 μL topical on ventral prothorax, females, 7 days, 25° C. The protocol: The present compounds 1 and 2 were dissolved in acetone and then the 10% w/v acetone solutions were prepared.
A droplet (1.0 μL) of the solution was topically applied onto the ventral prothorax of each female American cockroaches (Periplaneta americana). Then, the treated individuals were transferred to a clean polyethylene cup (bottom diameter: 12 cm, height: 10 cm) with some food and water. Each treatment consisted of 2 replications of 5 cockroaches/polyethylene cup. The mortality was determined on 7 days after treatment at 25° C. Mortality of insects (%)=(Number of dead insects/Number of tested insects)×100

The subject of data set [3] is housefly (Musca domestica). Description: Test Example 8: housefly, treated filter paper with sucrose bait. The conditions noted are these: 500 ppm, 0.7 mL on filter paper, female adults, after 24 hours. The protocol:
Each of the present compounds 1 to 3, 5, 7, 8, 11, 13 to 16, 21 and 22 was made to a formulation according to the Formulation example 5 and was then diluted with water so that the active ingredient concentration was set to 500 ppm to prepare the diluted solution. The bottom of the polyethylene cup having 5.5 cm diameter was matted with the same size of a filter paper, and 0.7 mL of the diluted solution was added dropwise to the filter paper and 30 mg sucrose as bait was placed in the cup uniformly. Ten (10) heads of female adult housefly (Musca domestica) were released into the polyethylene cup and the cup was covered with the lid. After 24 hours, the life and death of housefly was examined and the number of died insects was counted and the mortality of insects was calculated by the following equation. Mortality of insects (%)=(Number of dead insects/Number of tested insects)×100

In data set [4] the test system is German cockroach (Blattella germanica). Description: Test Example 9: German cockroach, treated filter paper with sucrose bait. The conditions noted are these: 500 ppm, 0.7 mL on filter paper, male adults, after 6 days. The protocol:
Each of the present compounds 1 to 3, 5, 7, and 13 was made to a formulation according to the Formulation example 5 and was then diluted with water so that the active ingredient concentration was set to 500 ppm to prepare the diluted solution. The bottom of the polyethylene cup having 5.5 cm diameter was matted with the same size of a filter paper, and 0.7 mL of the diluted solution was added dropwise to the filter paper and 30 mg sucrose as bait was placed in the cup uniformly. Two (2) heads of male adult German cockroach (Blattella germanica) were released into the polyethylene cup and the cup was covered with the lid. After 6 days, the life and death of German cockroach was examined and the number of died insects was counted and the mortality of insects was calculated by the following equation. Mortality of insects (%)=(Number of dead insects/Number of tested insects)×100

This is an account of results in US9668482B1, “Fused heterocyclic compound and pest control application thereof” (Sumitomo Chemical Company, Limited, priority 2014, dated 2017).

On to `CCS(=O)(=O)c1cc(-c2ncccn2)cnc1-c1nc2cc(C(F)(F)F)cnc2n1C` [Compound 112], for which the “Morality (%)” value in data set [1] (concentration 2 w/v%) was determined as 70%; in data set [1] (concentration 4 w/v%), 100%.

With `CCS(=O)(=O)c1ccc(-n2cnc(Cl)n2)nc1-c1nc2cc(C(F)(F)F)cnc2n1C` [compound 2], in data set [2], the Mortality of insects was found to be 100%.

On to `CCS(=O)(=O)c1ccc(-n2cnc(C(F)(F)F)n2)nc1-c1nc2cc(C(F)(F)F)cnc2n1C` [compound 5], for which the Mortality of insects in data set [3] and in data set [4] was 100% in each case. On to `CCS(=O)(=O)c1ccc(-n2cnc(SC)n2)nc1-c1nc2cc(C(F)(F)F)cnc2n1C` [compound 7], for which the Mortality of insects in data set [3] and in data set [4] was 100% each time. As to `CCS(=O)(=O)c1ccc(-n2cnc(S(C)(=O)=O)n2)nc1-c1nc2cc(C(F)(F)F)cnc2n1C` [compound 8], the Mortality of insects in data set [3] turned out to be 100%.

In turn, `CCS(=O)(=O)c1ccc(-n2cnc(C(=O)OC)n2)nc1-c1nc2cc(C(F)(F)F)cnc2n1C` [compound 11] showed a Mortality of insects in data set [3] of 100%.

Regarding `CCSc1ccc(-n2cncn2)nc1-c1nc2cc(C(F)(F)F)cnc2n1C` [compound 13], the Mortality of insects in data set [4] is 100%. In data set [3], `CC[S+]([O-])c1ccc(-n2cnc(C(F)(F)F)n2)nc1-c1nc2cc(C(F)(F)F)cnc2n1C` (stereo not drawn) [compound 21] showed a Mortality of insects of 100%. Molecule `CC[S+]([O-])c1ccc(-n2cnc(SC)n2)nc1-c1nc2cc(C(F)(F)F)cnc2n1C` (stereo not drawn) [compound 22] came in with a Mortality of insects in data set [3] of 100%.
